Assay results taken from US6054435A, “6-O-substituted macrolides having antibacterial activity” (priority 1999, dated 2000).
≈ marks a conversion by molar mass, not a printed value.

Columns and labels:
Assay in all cases: in vitro antibacterial activity (MIC), agar dilution
Type in all cases: cell-based
Candida albicans CCH 442 = details: organism code TT; BHI agar, 35-37° C., 20 to 24 hours; unit assumed
In short: (§1)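 Agar dilution on BHI agar with twelve successive compound dilutions; plates inoculated by Steers replicator with 1:100 culture dilutions (1:10 for slow growers such as Streptococcus). MIC is the lowest concentration giving no growth, slight haze or sparse colonies versus a drug-free control.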

[1] = tested on: Enterococcus faecium ATCC 8043; details: organism code II; BHI agar, 35-37° C., 20 to 24 hours; unit assumed
In short: as §1

Escherichia coli DC-2 = details: organism code SS; BHI agar, 35-37° C., 20 to 24 hours; unit assumed
In short: as §1

Escherichia coli JUHL = details: organism code QQ; BHI agar, 35-37° C., 20 to 24 hours; unit assumed
In short: as §1

Escherichia coli SS = details: organism code RR; BHI agar, 35-37° C., 20 to 24 hours; unit assumed
In short: as §1

[2] = tested on: Haemophilis Influenzae DILL AMP R; details: organism code WW; BHI agar, 35-37° C., 20 to 24 hours; unit assumed
In short: as §1

[3] = tested on: Micrococcus luteus ATCC 4698; details: organism code PP; BHI agar, 35-37° C., 20 to 24 hours; unit assumed
In short: (§2)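 Agar dilution in BHI agar, twelve successive compound dilutions. Inoculum 1:100, or 1:10 for slow-growing strains (e.g. Streptococcus), replicator-spotted. Read by eye; MIC = lowest concentration with no growth, slight haze or sparsely isolated colonies relative to growth control.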

[4] = tested on: Micrococcus luteus ATCC 9341; details: organism code OO; BHI agar, 35-37° C., 20 to 24 hours; unit assumed
In short: as §2

[5] = tested on: Mycobacterium smegmatis ATCC 114; details: organism code UU; BHI agar, 35-37° C., 20 to 24 hours; unit assumed
In short: as §1

[6] = tested on: Nocardia Asteroides ATCC9970; details: organism code VV; BHI agar, 35-37° C., 20 to 24 hours; unit assumed
In short: as §1

[7] = tested on: Staphylococcus aureus 1775; details: organism code GG; BHI agar, 35-37° C., 20 to 24 hours; unit assumed
In short: as §1

[8] = tested on: Staphylococcus aureus A-5278; details: organism code CC; BHI agar, 35-37° C., 20 to 24 hours; unit assumed
In short: as §1

[9] = tested on: Staphylococcus aureus A5177; details: organism code BB; BHI agar, 35-37° C., 20 to 24 hours; unit assumed
In short: as §1

[10] = tested on: Staphylococcus aureus ATCC 6538P; details: organism code AA; BHI agar, 35-37° C., 20 to 24 hours; unit assumed
In short: as §1

[11] = tested on: Staphylococcus aureus CMX 553; details: organism code FF; BHI agar, 35-37° C., 20 to 24 hours; unit assumed
In short: as §1

[12] = tested on: Staphylococcus aureus CMX 642A; details: organism code DD; BHI agar, 35-37° C., 20 to 24 hours; unit assumed
In short: as §1

[13] = tested on: Staphylococcus aureus NCTC10649M; details: organism code EE; BHI agar, 35-37° C., 20 to 24 hours; unit assumed
In short: as §1

[14] = tested on: Staphylococcus epidermidis 3519; details: organism code HH; BHI agar, 35-37° C., 20 to 24 hours; unit assumed
In short: as §1

[15] = tested on: Streptococcus Pneumonia 5649; details: organism code ZZA; BHI agar, 35-37° C., 20 to 24 hours; unit assumed
In short: as §1

[16] = tested on: Streptococcus Pneumonia 5979; details: organism code ZZ; BHI agar, 35-37° C., 20 to 24 hours; unit assumed
In short: as §1

[17] = tested on: Streptococcus Pneumonia ATCC6303; details: organism code XX; BHI agar, 35-37° C., 20 to 24 hours; unit assumed
In short: as §1

[18] = tested on: Streptococcus Pneumonia GYR 1171; details: organism code YY; BHI agar, 35-37° C., 20 to 24 hours; unit assumed
In short: as §1

[19] = tested on: Streptococcus agalactiae CMX 508; details: organism code KK; BHI agar, 35-37° C., 20 to 24 hours; unit assumed
In short: as §1

[20] = tested on: Streptococcus bovis A-5169; details: organism code JJ; BHI agar, 35-37° C., 20 to 24 hours; unit assumed
In short: as §1

[21] = tested on: Streptococcus pyogenes 930; details: organism code MM; BHI agar, 35-37° C., 20 to 24 hours; unit assumed
In short: as §1

[22] = tested on: Streptococcus pyogenes EES61; details: organism code LL; BHI agar, 35-37° C., 20 to 24 hours; unit assumed
In short: as §1

[23] = tested on: Streptococcus pyogenes PIU 2548; details: organism code NN; BHI agar, 35-37° C., 20 to 24 hours; unit assumed
In short: as §1

SMILES	MIC (Candida albicans CCH 442)	MIC [1]	MIC (Escherichia coli DC-2)	MIC (Escherichia coli JUHL)	MIC (Escherichia coli SS)	MIC [2]	MIC [3]	MIC [4]	MIC [5]	MIC [6]	MIC [7]	MIC [8]	MIC [9]	MIC [10]	MIC [11]	MIC [12]	MIC [13]	MIC [14]	MIC [15]	MIC [16]	further results
CC[C@H]1OC(=O)[C@H](C)C(=O)[C@H](C)[C@@H](O[C@@H]2O[C@H](C)C[C@H](N(C)C)[C@H]2O)[C@](C)(OCC#Cc2ccc(-c3ccc(Cl)s3)s2)C[C@@H](C)C(=O)[C@H](C)[C@H]2NC(=O)O[C@@]21C [Example 26]	> 100 µg/mL	0.1 µg/mL (≈ 0.12 µM)	> 100 µg/mL	> 100 µg/mL	1.56 µg/mL (≈ 1.87 µM)	4 µg/mL (≈ 4.79 µM)	0.2 µg/mL (≈ 0.239 µM)	0.05 µg/mL (≈ 0.0598 µM)	0.39 µg/mL (≈ 0.467 µM)	0.1 µg/mL (≈ 0.12 µM)	12.5 µg/mL (≈ 15 µM)	12.5 µg/mL (≈ 15 µM)	0.2 µg/mL (≈ 0.239 µM)	0.2 µg/mL (≈ 0.239 µM)	0.2 µg/mL (≈ 0.239 µM)	0.2 µg/mL (≈ 0.239 µM)	0.2 µg/mL (≈ 0.239 µM)	0.2 µg/mL (≈ 0.239 µM)	0.25 µg/mL (≈ 0.299 µM)	0.5 µg/mL (≈ 0.598 µM)	MIC [17]: 0.03 µg/mL (≈ 0.0359 µM); MIC [18]: 0.03 µg/mL (≈ 0.0359 µM); MIC [19]: ≤ 0.005 µg/mL; MIC [20]: 0.05 µg/mL (≈ 0.0598 µM); MIC [21]: 3.1 µg/mL (≈ 3.71 µM); MIC [22]: 0.02 µg/mL (≈ 0.0239 µM); MIC [23]: 0.2 µg/mL (≈ 0.239 µM)
CC[C@H]1OC(=O)[C@H](C)C(=O)[C@H](C)[C@@H](O[C@@H]2O[C@H](C)C[C@H](N(C)C)[C@H]2O)[C@](C)(OCC#Cc2ccc(-c3ccc(F)cc3)s2)C[C@@H](C)C(=O)[C@H](C)[C@H]2NC(=O)O[C@@]21C [Example 22]	> 100 µg/mL	0.78 µg/mL (≈ 0.959 µM)	> 100 µg/mL	> 100 µg/mL	25 µg/mL (≈ 30.8 µM)	64 µg/mL (≈ 78.7 µM)	3.1 µg/mL (≈ 3.81 µM)	0.39 µg/mL (≈ 0.48 µM)	1.56 µg/mL (≈ 1.92 µM)	0.78 µg/mL (≈ 0.959 µM)	> 100 µg/mL	> 100 µg/mL	3.1 µg/mL (≈ 3.81 µM)	3.1 µg/mL (≈ 3.81 µM)	3.1 µg/mL (≈ 3.81 µM)	3.1 µg/mL (≈ 3.81 µM)	3.1 µg/mL (≈ 3.81 µM)	3.1 µg/mL (≈ 3.81 µM)	4 µg/mL (≈ 4.92 µM)	4 µg/mL (≈ 4.92 µM)	MIC [17]: 1 µg/mL (≈ 1.23 µM); MIC [18]: 1 µg/mL (≈ 1.23 µM); MIC [19]: 0.39 µg/mL (≈ 0.48 µM); MIC [20]: 0.39 µg/mL (≈ 0.48 µM); MIC [21]: > 100 µg/mL; MIC [22]: 0.39 µg/mL (≈ 0.48 µM); MIC [23]: 3.1 µg/mL (≈ 3.81 µM)
CC[C@H]1OC(=O)[C@H](C)C(=O)[C@H](C)[C@@H](O[C@@H]2O[C@H](C)C[C@H](N(C)C)[C@H]2O)[C@](C)(OC/C=C/c2ccc3ncc(Br)cc3c2)C[C@@H](C)C(=O)[C@H](C)[C@H]2NC(=O)O[C@@]21C [Example 38]	> 100 µg/mL	0.05 µg/mL (≈ 0.0592 µM)	> 100 µg/mL	100 µg/mL (≈ 118 µM)	0.78 µg/mL (≈ 0.923 µM)	2 µg/mL (≈ 2.37 µM)	0.2 µg/mL (≈ 0.237 µM)	0.05 µg/mL (≈ 0.0592 µM)	0.39 µg/mL (≈ 0.462 µM)	0.05 µg/mL (≈ 0.0592 µM)	100 µg/mL (≈ 118 µM)	100 µg/mL (≈ 118 µM)	0.2 µg/mL (≈ 0.237 µM)	0.2 µg/mL (≈ 0.237 µM)	0.2 µg/mL (≈ 0.237 µM)	0.2 µg/mL (≈ 0.237 µM)	0.2 µg/mL (≈ 0.237 µM)	0.2 µg/mL (≈ 0.237 µM)	0.25 µg/mL (≈ 0.296 µM)	2 µg/mL (≈ 2.37 µM)	MIC [17]: 0.03 µg/mL (≈ 0.0355 µM); MIC [18]: 0.03 µg/mL (≈ 0.0355 µM); MIC [19]: 0.02 µg/mL (≈ 0.0237 µM); MIC [20]: ≤ 0.005 µg/mL; MIC [21]: 3.1 µg/mL (≈ 3.67 µM); MIC [22]: 0.02 µg/mL (≈ 0.0237 µM); MIC [23]: 0.2 µg/mL (≈ 0.237 µM)
